The values below come from publication PMC7959488, “Identify potent SARS-CoV-2 main protease inhibitors via accelerated free energy perturbation-based virtual screening of existing drugs” (Proceedings of the National Academy of Sciences of the …, 2020).

Where two headings read alike, the source gives them in different places.

The target in assay [1] is T1, SARS-CoV-2 M^pro (Severe acute respiratory syndrome coronavirus 2, UniProt P0DTD1). The conditions noted are these: ref [6], [36]; read-out: IC50 (µM), values in the brackets obtained from other published works (converted); cited from earlier work.
For assay [2], the target named is T1, SARS-CoV-2 M^pro.
The target of assay [3] is T1, SARS-CoV-2 M^pro. Briefly: biochemical.
Assay [4] has as its target T1, SARS-CoV-2 M^pro. This is another data set of the same source.

For `COC(=O)N[C@H](C(=O)N[C@@H](Cc1ccccc1)[C@@H](O)CN(Cc1ccc(-c2ccccn2)cc1)NC(=O)[C@@H](NC(=O)OC)C(C)(C)C)C(C)(C)C` [Atazanavir, atazanavir], the IC50 on SARS-CoV-2 M^pro [1] is 10 µM; on SARS-CoV-2 M^pro [3] (substrate concentration 20 µM, 500 nM enzyme, ∼50 values estimated from single-concentration assay, read-out: IC50), 7.5 ± 0.3 µM. This compound registered a UEMM-GBSA on SARS-CoV-2 M^pro [2] (unsigned error |ΔGMM-GBSA − ΔGexp|) of 30.6 kcal/mol. This compound also displayed a UEMM-PBSA on SARS-CoV-2 M^pro [2] (unsigned error |ΔGMM-PBSA − ΔGexp|) of 24.4 kcal/mol. Further, the ΔGexp on SARS-CoV-2 M^pro [3] (calculated from corresponding Ki values) is given as -8.6 kcal/mol. Also, the Ki on SARS-CoV-2 M^pro [3] (converted from IC50 based on the assumption of the competitive inhibition without covalent binding, read-out: Ki) is 0.49 ± 0.02 µM. Moreover, the UEFEP-ABFE at SARS-CoV-2 M^pro [4] came to 0.6 kcal/mol.

Usually IC50 stands for the concentration at which inhibition is half-maximal.
